Measured values: US12377087B2, “Compounds for the treatment of cancer” (UNIVERSITY OF LOUISVILLE RESEARCH FOUNDATION, INC., priority 2015, dated 2025)

Columns and labels:
[1] = biological target: human recombinant PFKFB4 (Homo sapiens, UniProt Q16877); assay: fructose-6-phosphate kinase activity of human recombinant PFKFB4 (in vitro kinase assay); assay type: biochemical
Method: Kinase assays: The fructose-6-phosphate kinase activity of human recombinant PFKFB4 in the presence of DMSO±indicated 5MPN concentrations was assayed as previously described. The activity of 5MPN against 97 kinases was examined using a commercially available active-site dependent competition binding assay core service (KINOMEscanEDGE) that quantifies the capacity of lest agents to compete with an immobilized, active-site directed ligand using a DNA-tagged kinase and immobilized ligand and compound. For example, enzyme inhibition was studies using a ADP-Glo assay. […] ADP is converted into ATP, which is converted into light by a luciferase.

[2] = tested on: H460 cells; assay: ATP measurements in H460 cells; assay type: cell-based, human; details: H460, 10 μM 5MPN, 6-72 hours
Method: Cells were lysed and intracellular ATP determined as described previously. For example, cells were washed (while still adherent) with cold PBS 1×, lysed with Passive Lysis Buffer (1×; Molecular Probes, Invitrogen) added directly to the plates, and immediately harvested by scraping. The lysates were flash frozen (to −80° C.) and thawed (to 37° C.) once to accomplish complete lysis and then centrifuged (at 4° C.) for 30 seconds to clear the lysates. Intracellular ATP levels were determined using a bioluminescence assay (Molecular Probes), utilizing recombinant firefly luciferase and its substrate, D-luciferin. The luminescence was read in a TD-20/20 luminometer (Turner Designs) at 560 nm. The ATP values were calculated using an ATP standard curve. The protein concentrations of the lysates were estimated using the BCA assay (Pierce Biotechnology) and ATP was expressed as pmol/μg protein. All data are expressed as the mean±SD of three experiments. Statistical significance was assessed by the two-sample t test (independent variable).

[3] = tested on: H460 cells; assay: proliferation / viable cell count (trypan blue) of H460 cells; assay type: cell-based, human
Method: Cell Viability: Cells were incubated in 20% trypan blue (Sigma) for 5 minutes. Cells excluding trypan blue were counted using a standard hemocytometer (Hausser Scientific) to determine total numbers of viable cells. Data are expressed as mean±SD of three experiments. Proliferation Assays: H460 non-small cell lung cancer cells were plated in 24 well plates and exposed to increasing concentrations of the indicated inhibitors of Formula IV (FBR1-02 corresponds to [drawing 47] DMSO was used as vehicle. After 24, 48 and 72 hours of exposure, cells were detached and viable cells were counted by Trypan blue exclusion (representative counts at 48 hours shown).

[4] = tested on: hT/LT/Ras cells; assay: viable cell count of hT/LT/Ras cells; assay type: cell-based, human; details: 48 hours
Description: Cell lines and cell culture: H460, H1299, H441, H522 and A549 non-small cell lung cancer (NSCLC), MDA-MB-231 (breast), LNCaP (prostatic) and HCT116 (colon) adenocarcinoma and Lewis lung carcinoma (LLC) cell lines were obtained from ATCC and used within 6 months of acquisition, PFKFB4^7 ear pinna Fibroblasts isolated from TamCre/loxP/PFKFB4^−/− mice were immortalized as described previously (Chesney J et al. Fructose-2,6-bisphosphate synthesis by 6-phosphofructo-2-kinase/fructose-2,6-bisphosphatase 4 (PFKFB4) is required for the glycolytic response to hypoxia and tumor growth. Oncotarget 2014 Aug. 30; 5(16):6670-86). Normal bronchial epithelial cells (NHBE) were obtained from Lonza and NHBE cells expressing telomerase, SV40 large T antigen and activated Ras (hT/LT/Ras) were a gift from Dr. B. J. Rollins, Dana Farber Cancer Institute. All cell lines were tested and found negative for mycoplasma (PCR Mycoplasma Detection Kit, ABM). […]
Cell Viability: Cells were incubated in 20% trypan blue (Sigma) for 5 minutes. Cells excluding trypan blue were counted using a standard hemocytometer (Hausser Scientific) to determine total numbers of viable cells. Data are expressed as mean±SD of three experiments.

[5] = tested on: H460 human lung adenocarcinoma xenografts; assay: H460 xenograft tumor growth in athymic mice; assay type: in vivo, BALB/c athymic mice; details: 120 mg/kg oral daily

Chain of human recombinant PFKFB4 (Q16877 whole entry): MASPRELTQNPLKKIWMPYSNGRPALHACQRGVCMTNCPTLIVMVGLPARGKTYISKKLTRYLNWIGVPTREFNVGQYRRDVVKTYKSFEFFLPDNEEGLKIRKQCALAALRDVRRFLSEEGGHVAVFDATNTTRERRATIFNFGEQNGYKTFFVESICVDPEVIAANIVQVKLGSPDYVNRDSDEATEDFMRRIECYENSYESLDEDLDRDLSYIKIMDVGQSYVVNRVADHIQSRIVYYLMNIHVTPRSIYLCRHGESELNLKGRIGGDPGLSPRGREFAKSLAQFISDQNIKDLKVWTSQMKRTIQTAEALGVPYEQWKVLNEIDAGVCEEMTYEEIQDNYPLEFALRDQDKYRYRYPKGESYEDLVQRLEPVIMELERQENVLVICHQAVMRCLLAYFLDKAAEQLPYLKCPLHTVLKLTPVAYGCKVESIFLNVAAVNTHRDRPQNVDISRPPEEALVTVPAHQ

## COc1cccc2c(NCCCCCO[N+](=O)[O-])ccnc12 [5MPN, 5-[(8-methoxyquinolin-4-yl)amino]pentyl nitrate]
[1]; 0, 0.1, 1 or 10 μM 5MPN, F6P 0-2000 μmol/L
  PFKFB4 activity (kinase activity of recombinant PFKFB4): significantly inhibited
[1]; F6P binding site
  mode of inhibition, Lineweaver-Burk analyses: competitive inhibitor
[2]
  ATP: reduced
[3]; H460, 24-72 hours
  cell proliferation: reduction in cell proliferation
[3]; H460, 48 hours
  growth, viable cells: dose-dependent reduction in growth
[3]; H460 transfected with PFKFB4, 10 μM 5MPN, 24 hours
  anti-proliferative effect with over-expression of PFKFB4: protected
[4]
  cell growth, live cells: suppressed similar to other transformed cells
[5]; H460-bearing athymic mice
  body weight: without affecting body weight
[5]; athymic mice
  tumor growth of H460 xenografts: suppressed the growth
